Laboratory results published in ChEMBL document CHEMBL1201862, “PubChem BioAssay data set” (2004).
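Grown in 96-well plates, cells were treated for 48 hours with each compound at five concentrations. Insufficient inhibition: endpoint recorded as highest concentration tested. GI50 = concentration required for 50% inhibition of growth.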 The source made the active and inactive calls. No stated cut-off is given here; in the data, active = GI50 up to about 1.1 µM and inactive = higher.

Legend:
Experiment in all cases: NCI tumour cell line growth inhibition, 48 h
LOX IMVI = system: LOX IMVI
Malme-3M = system: Malme-3M
SN12C = system: SN12C
SF-539 = system: SF-539
K562 = system: K562
SK-OV-3 = system: SK-OV-3
A498 = system: A498
SK-MEL-5 = system: SK-MEL-5
HCT-15 = system: HCT-15
OVCAR-5 = system: OVCAR-5
HOP-92 = system: HOP-92
UO-31 = system: UO-31
UACC-62 = system: UACC-62
SF-295 = system: SF-295
ACHN = system: ACHN
M14 = system: M14
MCF7 = system: MCF7
PC-3 = system: PC-3
T47D = system: T47D

COc1ccc(/C=C2/C(=O)N(C(=O)c3ccc(Cl)cc3)N=C2C)cc1OC
GI50 (LOX IMVI): > 100 µM (inactive) | GI50 (Malme-3M): > 100 µM (inactive) | GI50 (SN12C): > 100 µM (inactive) | GI50 (SF-539): > 100 µM (inactive) | GI50 (K562): > 100 µM (inactive) | GI50 (SK-OV-3): > 100 µM (inactive) | GI50 (A498): > 100 µM (inactive) | GI50 (SK-MEL-5): > 100 µM (inactive) | GI50 (HCT-15): > 100 µM | GI50 (OVCAR-5): > 100 µM (inactive) | GI50 (HOP-92): > 100 µM (inactive) | GI50 (UO-31): > 100 µM (inactive) | GI50 (UACC-62): > 100 µM (inactive) | GI50 (SF-295): > 100 µM (inactive) | GI50 (ACHN): > 100 µM (inactive) | GI50 (M14): > 100 µM (inactive)

CN(C)CCn1c(CO)nc2c1c(=O)n(C)c(=O)n2C
GI50 (LOX IMVI): > 100 µM (inactive) | GI50 (Malme-3M): > 100 µM (inactive) | GI50 (MCF7): > 100 µM (inactive) | GI50 (SN12C): > 100 µM (inactive) | GI50 (SF-539): > 100 µM (inactive) | GI50 (PC-3): > 100 µM (inactive) | GI50 (K562): > 100 µM (inactive) | GI50 (SK-OV-3): > 100 µM (inactive) | GI50 (A498): > 100 µM (inactive) | GI50 (SK-MEL-5): > 100 µM (inactive) | GI50 (HCT-15): > 100 µM | GI50 (T47D): > 100 µM (inactive) | GI50 (OVCAR-5): > 100 µM (inactive) | GI50 (UO-31): > 100 µM (inactive) | GI50 (UACC-62): > 100 µM (inactive) | GI50 (SF-295): > 100 µM (inactive) | GI50 (ACHN): > 100 µM (inactive) | GI50 (M14): > 100 µM (inactive)

O=C(Nc1ccccc1C(=O)NCc1ccccc1)/C(=C/c1ccccc1O)NC(=O)c1ccccc1
GI50 (LOX IMVI): 98.2 µM (inactive) | GI50 (MCF7): 5.32 µM (inactive) | GI50 (SN12C): > 100 µM (inactive) | GI50 (SF-539): > 100 µM (inactive) | GI50 (PC-3): > 100 µM (inactive) | GI50 (K562): > 100 µM (inactive) | GI50 (SK-OV-3): 48.9 µM (inactive) | GI50 (A498): > 100 µM (inactive) | GI50 (SK-MEL-5): > 100 µM (inactive) | GI50 (HCT-15): 24.7 µM | GI50 (T47D): 19.5 µM (inactive) | GI50 (OVCAR-5): > 100 µM (inactive) | GI50 (HOP-92): 75.3 µM (inactive) | GI50 (UO-31): 65.6 µM (inactive) | GI50 (UACC-62): 33.7 µM (inactive) | GI50 (SF-295): 49.9 µM (inactive) | GI50 (ACHN): 61 µM (inactive) | GI50 (M14): > 100 µM (inactive)

CC[N+]1(C)CCC(O)(/C=C/c2ccc(Cl)c(Cl)c2)C(C(=O)/C=C/c2ccc(Cl)c(Cl)c2)C1 (stereo not drawn)
GI50 (LOX IMVI): 1.39 µM (inactive) | GI50 (Malme-3M): 1.62 µM (inactive) | GI50 (MCF7): 2.36 µM (inactive) | GI50 (SN12C): 1.88 µM (inactive) | GI50 (SF-539): 3.03 µM (inactive) | GI50 (PC-3): 2.18 µM (inactive) | GI50 (K562): 1.55 µM (inactive) | GI50 (SK-OV-3): 3.41 µM (inactive) | GI50 (A498): 2.52 µM (inactive) | GI50 (SK-MEL-5): 2.68 µM (inactive) | GI50 (HCT-15): 2.17 µM | GI50 (T47D): 1.8 µM (inactive) | GI50 (OVCAR-5): 2.62 µM (inactive) | GI50 (HOP-92): 1.7 µM (inactive) | GI50 (UO-31): 1.83 µM (inactive) | GI50 (UACC-62): 1.74 µM (inactive) | GI50 (SF-295): 4.14 µM (inactive) | GI50 (ACHN): 1.98 µM (inactive)

Cc1ccc(C(=O)/C=C/c2ccccc2O)c(C)c1
GI50 (LOX IMVI): > 100 µM (inactive) | GI50 (Malme-3M): > 100 µM (inactive) | GI50 (SN12C): > 100 µM (inactive) | GI50 (SF-539): > 100 µM (inactive) | GI50 (K562): > 100 µM (inactive) | GI50 (SK-OV-3): > 100 µM (inactive) | GI50 (A498): > 100 µM (inactive) | GI50 (SK-MEL-5): > 100 µM (inactive) | GI50 (HCT-15): > 100 µM | GI50 (OVCAR-5): > 100 µM (inactive) | GI50 (HOP-92): > 100 µM (inactive) | GI50 (UO-31): > 100 µM (inactive) | GI50 (UACC-62): > 100 µM (inactive) | GI50 (SF-295): > 100 µM (inactive) | GI50 (ACHN): > 100 µM (inactive) | GI50 (M14): > 100 µM (inactive)

CN(c1ccccc1)C(c1ccccc1)C(O)c1ccccc1 (stereo not drawn)
GI50 (LOX IMVI): 17 µM (inactive) | GI50 (Malme-3M): 16.3 µM (inactive) | GI50 (SN12C): 17.1 µM (inactive) | GI50 (SF-539): 22.1 µM (inactive) | GI50 (K562): 17.2 µM (inactive) | GI50 (SK-OV-3): 22.6 µM (inactive) | GI50 (A498): 22 µM (inactive) | GI50 (SK-MEL-5): 19.4 µM (inactive) | GI50 (HCT-15): 21.7 µM | GI50 (OVCAR-5): 19.5 µM (inactive) | GI50 (HOP-92): 29.9 µM (inactive) | GI50 (UO-31): 21.3 µM (inactive) | GI50 (UACC-62): 17.9 µM (inactive) | GI50 (SF-295): 15.8 µM (inactive) | GI50 (ACHN): 22.6 µM (inactive) | GI50 (M14): 16.6 µM (inactive)

Cc1cc(NC(=O)C2C3C=CC(O3)C2C(=O)O)no1 (stereo not drawn)
GI50 (LOX IMVI): 14.3 µM (inactive) | GI50 (Malme-3M): > 100 µM (inactive) | GI50 (SN12C): 37.6 µM (inactive) | GI50 (SF-539): 24 µM (inactive) | GI50 (K562): 22.2 µM (inactive) | GI50 (SK-OV-3): > 100 µM (inactive) | GI50 (A498): 48 µM (inactive) | GI50 (SK-MEL-5): > 100 µM (inactive) | GI50 (HCT-15): 18.5 µM | GI50 (OVCAR-5): > 100 µM (inactive) | GI50 (HOP-92): > 100 µM (inactive) | GI50 (UO-31): > 100 µM (inactive) | GI50 (UACC-62): > 100 µM (inactive) | GI50 (SF-295): > 100 µM (inactive) | GI50 (ACHN): 39.7 µM (inactive) | GI50 (M14): > 100 µM (inactive)

O=C1NC(=O)C(CCC(=O)c2ccc3ccccc3c2)C(=O)N1
GI50 (LOX IMVI): > 100 µM (inactive) | GI50 (Malme-3M): > 100 µM (inactive) | GI50 (SN12C): > 100 µM (inactive) | GI50 (SF-539): > 100 µM (inactive) | GI50 (K562): > 100 µM (inactive) | GI50 (SK-OV-3): > 100 µM (inactive) | GI50 (A498): > 100 µM (inactive) | GI50 (SK-MEL-5): > 100 µM (inactive) | GI50 (HCT-15): > 100 µM | GI50 (OVCAR-5): > 100 µM (inactive) | GI50 (HOP-92): > 100 µM (inactive) | GI50 (UO-31): > 100 µM (inactive) | GI50 (UACC-62): > 100 µM (inactive) | GI50 (SF-295): > 100 µM (inactive) | GI50 (ACHN): > 100 µM (inactive) | GI50 (M14): > 100 µM (inactive)

COC(=O)C(=O)C(C(=O)OC)C(=O)C(=O)Nc1c(C)cccc1C (stereo not drawn)
GI50 (LOX IMVI): > 100 µM (inactive) | GI50 (Malme-3M): > 100 µM (inactive) | GI50 (SN12C): > 100 µM (inactive) | GI50 (SF-539): > 100 µM (inactive) | GI50 (K562): > 100 µM (inactive) | GI50 (SK-OV-3): > 100 µM (inactive) | GI50 (A498): > 100 µM (inactive) | GI50 (SK-MEL-5): > 100 µM (inactive) | GI50 (HCT-15): > 100 µM | GI50 (OVCAR-5): > 100 µM (inactive) | GI50 (HOP-92): 41.6 µM (inactive) | GI50 (UO-31): > 100 µM (inactive) | GI50 (UACC-62): > 100 µM (inactive) | GI50 (SF-295): > 100 µM (inactive) | GI50 (ACHN): > 100 µM (inactive) | GI50 (M14): > 100 µM (inactive)

COc1ccc(OCC(=O)O)c(C(=O)CCC(=O)O)c1
GI50 (LOX IMVI): > 100 µM (inactive) | GI50 (Malme-3M): > 100 µM (inactive) | GI50 (SN12C): > 100 µM (inactive) | GI50 (SF-539): > 100 µM (inactive) | GI50 (K562): > 100 µM (inactive) | GI50 (SK-OV-3): > 100 µM (inactive) | GI50 (A498): > 100 µM (inactive) | GI50 (SK-MEL-5): > 100 µM (inactive) | GI50 (HCT-15): > 100 µM | GI50 (OVCAR-5): > 100 µM (inactive) | GI50 (HOP-92): > 100 µM (inactive) | GI50 (UO-31): > 100 µM (inactive) | GI50 (UACC-62): > 10 µM (inactive) | GI50 (SF-295): > 100 µM (inactive) | GI50 (ACHN): > 100 µM (inactive) | GI50 (M14): > 10 µM (inactive)

COc1cccc(SSc2cccc(OC)c2C(=O)O)c1C(=O)O
GI50 (LOX IMVI): > 100 µM (inactive) | GI50 (Malme-3M): > 100 µM (inactive) | GI50 (SN12C): > 100 µM (inactive) | GI50 (SF-539): > 100 µM (inactive) | GI50 (K562): > 100 µM (inactive) | GI50 (SK-OV-3): > 100 µM (inactive) | GI50 (A498): > 100 µM (inactive) | GI50 (SK-MEL-5): > 100 µM (inactive) | GI50 (HCT-15): > 100 µM | GI50 (OVCAR-5): > 100 µM (inactive) | GI50 (HOP-92): > 100 µM (inactive) | GI50 (UO-31): > 100 µM (inactive) | GI50 (UACC-62): > 100 µM (inactive) | GI50 (SF-295): > 100 µM (inactive) | GI50 (ACHN): > 100 µM (inactive) | GI50 (M14): > 100 µM (inactive)

NCCCC(N)(C(=O)O)C(F)F (stereo not drawn) [EFLORNITHINE]
GI50 (LOX IMVI): 678 µM (inactive) | GI50 (Malme-3M): > 5000 µM (inactive) | GI50 (MCF7): > 5000 µM (inactive) | GI50 (SN12C): > 1980 µM (inactive) | GI50 (SF-539): > 5000 µM (inactive) | GI50 (K562): > 2880 µM (inactive) | GI50 (SK-OV-3): > 5000 µM (inactive) | GI50 (A498): > 5000 µM (inactive) | GI50 (SK-MEL-5): > 5000 µM (inactive) | GI50 (HCT-15): 769 µM | GI50 (HOP-92): > 1890 µM (inactive) | GI50 (UO-31): > 5000 µM (inactive) | GI50 (UACC-62): > 5000 µM (inactive) | GI50 (SF-295): 2270 µM (inactive) | GI50 (ACHN): > 100 µM (inactive) | GI50 (M14): > 100 µM (inactive)
